Results as given in patent US10336761B2, “TGFβ receptor antagonist” (BRISTOL-MYERS SQUIBB COMPANY, priority 2015, dated 2019).
pIC50: −log10 of the molar value.

molecular target: HIS-TGFβR1 T204D (Homo sapiens (Human), UniProt P36897, T204D); experiment: HTRF probe-displacement assay, HIS-TGFβR1 T204D; format: binding; conditions: 1 hour at room temperature
Sequence (P36897 34-503 T204D): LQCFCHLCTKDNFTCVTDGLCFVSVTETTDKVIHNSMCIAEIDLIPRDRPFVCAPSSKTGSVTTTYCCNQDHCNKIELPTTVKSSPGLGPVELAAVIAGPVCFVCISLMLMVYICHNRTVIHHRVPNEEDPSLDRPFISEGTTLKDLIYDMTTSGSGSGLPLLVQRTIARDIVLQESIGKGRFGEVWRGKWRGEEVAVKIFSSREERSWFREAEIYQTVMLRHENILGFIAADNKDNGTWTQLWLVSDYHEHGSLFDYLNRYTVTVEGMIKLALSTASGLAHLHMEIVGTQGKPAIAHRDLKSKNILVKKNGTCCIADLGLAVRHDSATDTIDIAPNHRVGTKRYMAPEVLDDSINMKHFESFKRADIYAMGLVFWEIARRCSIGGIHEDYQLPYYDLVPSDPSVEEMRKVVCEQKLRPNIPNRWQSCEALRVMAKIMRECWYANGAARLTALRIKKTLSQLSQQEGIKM

Compound	pIC50
CC(=O)Nc1cc(Nc2nc(-c3ccccn3)nn3ccc(CNCC(C)(C)O)c23)ccn1 [Example 117, N-{4-[(5-{[(2-hydroxy-2-methylpropyl)amino]methyl}-2-(pyridin-2-yl)pyrrolo[2,1-f][1,2,4]triazin-4-yl)amino]pyridin-2-yl}acetamide]	9.07
CC(C)(O)CCNC(=O)c1cnccc1Nc1nc(-c2cccc(C(F)F)n2)nn2cccc12 [Example 187, 4-({2-[6-(difluoromethyl)pyridin-2-yl]pyrrolo[2,1-f][1,2,4]triazin-4-yl}amino)-N-(3-hydroxy-3-methylbutyl)pyridine-3-carboxamide]	7.68
CN(C)CCNCc1ccn2nc(-c3ccccn3)nc(Nc3ccncc3F)c12 [Example 280, N-[5-({[2-(dimethylamino)ethyl]amino}methyl)-2-(pyridin-2-yl)pyrrolo[2,1-f][1,2,4]triazin-4-yl]-3-fluoropyridin-4-amine]	8.85
Fc1cnccc1Nc1nc(-c2cc(Cl)ccn2)nn2cccc12 [Example 63, N-[2-(4-chloropyridin-2-yl)pyrrolo[2,1-f][1,2,4]triazin-4-yl]-3-fluoropyridin-4-amine]	6.82
NC(=O)c1cccc(-c2nc(Nc3ccncc3F)c3cccn3n2)n1 [Example 5, 6-{4-[(3-fluoropyridin-4-yl)amino]pyrrolo[2,1-f][1,2,4]triazin-2-yl}pyridine-2-carboxamide]	7.19
Cc1cccc(-c2nc(Nc3ccncc3F)c3ccc(C(=O)O)n3n2)n1 [Example 52, 4-[(3-fluoropyridin-4-yl)amino]-2-(6-methylpyridin-2-yl)pyrrolo[2,1-f][1,2,4]triazine-7-carboxylic acid]	7.46
COc1cccc(-c2nc(Nc3ccnc(NCCN4CCC(O)CC4)c3)c3c(C)ccn3n2)n1 [Example 136, 1-{2-[(4-{[2-(6-methoxypyridin-2-yl)-5-methylpyrrolo[2,1-f][1,2,4]triazin-4-yl]amino}pyridin-2-yl)amino]ethyl}piperidin-4-ol]	6.14
O[C@H]1CCN(Cc2ccn3nc(-c4ccccn4)nc(Nc4ccncc4F)c23)C1 [Example 232, (3S)-1-({4-[(3-fluoropyridin-4-yl)amino]-2-(pyridin-2-yl)pyrrolo[2,1-f][1,2,4]triazin-5-yl}methyl)pyrrolidin-3-ol]	9.03
OC1CCCCC1NCc1ccn2nc(-c3ccccn3)nc(Nc3ccncc3F)c12 (centres unmarked) [Example 272, 2-[({4-[(3-fluoropyridin-4-yl)amino]-2-(pyridin-2-yl)pyrrolo[2,1-f][1,2,4]triazin-5-yl}methyl)amino]cyclohexan-1-ol]	8.96
CS(=O)(=O)Nc1cc(Nc2nc(-c3cccc(C(F)(F)F)n3)nn3cccc23)ccn1 [Example 318, N-[4-({2-[6-(trifluoromethyl)pyridin-2-yl]pyrrolo[2,1-f][1,2,4]triazin-4-yl}amino)pyridin-2-yl]methanesulfonamide]	5.40
FC(F)(F)c1cccc(-c2nc(Nc3ccncc3Cl)c3cccn3n2)n1 [Example 86, 3-chloro-N-{2-[6-(trifluoromethyl)pyridin-2-yl]pyrrolo[2,1-f][1,2,4]triazin-4-yl}pyridin-4-amine]	8.72
Nc1cccc(-c2nc(Nc3ccncc3F)c3cccn3n2)n1 [Example 53, 2-(6-aminopyridin-2-yl)-N-(3-fluoropyridin-4-yl)pyrrolo[2,1-f][1,2,4]triazin-4-amine]	8.80
Cc1csc(-c2nc(Nc3ccncc3Cl)c3cccn3n2)n1 [Example 87, 3-chloro-N-[2-(4-methyl-1,3-thiazol-2-yl)pyrrolo[2,1-f][1,2,4]triazin-4-yl]pyridin-4-amine]	9.04
OC[C@@H](O)CNCc1ccn2nc(-c3ccccn3)nc(Nc3ccncc3F)c12 [Example 287, (2S)-3-[({4-[(3-fluoropyridin-4-yl)amino]-2-(pyridin-2-yl)pyrrolo[2,1-f][1,2,4]triazin-5-yl}methyl)amino]propane-1,2-diol]	9.08
Cc1cccc(-c2nc(Nc3ccncc3C(=O)NC3CCOC3)c3cccn3n2)n1 (centres unmarked) [Example 161, 4-{[2-(6-methylpyridin-2-yl)pyrrolo[2,1-f][1,2,4]triazin-4-yl]amino}-N-(oxolan-3-yl)pyridine-3-carboxamide]	7.55
CC(C)(C)OCCNC(=O)c1cnccc1Nc1nc(-c2cccc(C(F)F)n2)nn2cccc12 [Example 173, N-[2-(tert-butoxy)ethyl]-4-({2-[6-(difluoromethyl)pyridin-2-yl]pyrrolo[2,1-f][1,2,4]triazin-4-yl}amino)pyridine-3-carboxamide]	7.32
O=C(NCCN1CCCC1)c1cnccc1Nc1nc(-c2ccccn2)nn2cccc12 [Example 142]	7.72
COc1cccc(-c2nc(Nc3ccnc(Cl)c3)c3cccn3n2)n1 [Example 93, 2-chloro-N-[2-(6-methoxypyridin-2-yl)pyrrolo[2,1-f][1,2,4]triazin-4-yl]pyridin-4-amine]	5.18

Compound	pIC50
COC(=O)Nc1cc(Nc2nc(-c3cccc(OC)n3)nn3cccc23)ccn1 [Example 68, Methyl N-(4-{[2-(6-methoxypyridin-2-yl)pyrrolo[2,1-f][1,2,4]triazin-4-yl]amino}pyridin-2-yl)carbamate]	8.30
CC(C)(O)CNC(=O)c1cc(Nc2nc(-c3cccc(C(F)(F)F)n3)nn3cccc23)ccn1 [Example 324, N-(2-hydroxy-2-methylpropyl)-4-({2-[6-(trifluoromethyl)pyridin-2-yl]pyrrolo[2,1-f][1,2,4]triazin-4-yl}amino)pyridine-2-carboxamide]	5.36
C=CCOc1cnccc1Nc1nc(-c2ccccn2)nn2cccc12 [Example 79, 3-(prop-2-en-1-yloxy)-N-[2-(pyridin-2-yl)pyrrolo[2,1-f][1,2,4]triazin-4-yl]pyridin-4-amine]	7.89
COc1cccc(-c2nc(Nc3ccncc3F)c3c(CN4CCC(F)(F)CC4)ccn3n2)n1 [Example 25, N-{5-[(4,4-difluoropiperidin-1-yl)methyl]-2-(6-methoxypyridin-2-yl)pyrrolo[2,1-f][1,2,4]triazin-4-yl}-3-fluoropyridin-4-amine]	8.05
CC(=O)Nc1nccc(Nc2nc(-c3cccc(C(F)F)n3)nn3cccc23)c1F [Example 229, N-[4-({2-[6-(difluoromethyl)pyridin-2-yl]pyrrolo[2,1-f][1,2,4]triazin-4-yl}amino)-3-fluoropyridin-2-yl]acetamide]	8.29
COc1cccc(-c2nc(Nc3ccncc3F)c3c(C(O)CNCCN4CCS(=O)(=O)CC4)ccn3n2)n1 (centres unmarked) [Example 131, 4-{2-[(2-{4-[(3-fluoropyridin-4-yl)amino]-2-(6-methoxypyridin-2-yl)pyrrolo[2,1-f][1,2,4]triazin-5-yl}-2-hydroxyethyl)amino]ethyl}-1,4-thiomorpholine-1,1-dione]	7.25
O=C(c1cnccc1Nc1nc(-c2cccc(C(F)F)n2)nn2cccc12)N1CCC(O)(c2ccccc2)CC1 [Example 185, 1-[4-({2-[6-(difluoromethyl)pyridin-2-yl]pyrrolo[2,1-f][1,2,4]triazin-4-yl}amino)pyridine-3-carbonyl]-4-phenylpiperidin-4-ol]	5.92
O=C(CN1CC[C@H](O)C1)Nc1cc(Nc2nc(-c3cccc(C(F)(F)F)n3)nn3cccc23)ccn1 [Example 325, 2-[(3S)-3-hydroxypyrrolidin-1-yl]-N-[4-({2-[6-(trifluoromethyl)pyridin-2-yl]pyrrolo[2,1-f][1,2,4]triazin-4-yl}amino)pyridin-2-yl]acetamide]	8.00
Cc1cccc(-c2nc(Nc3ccncc3C(=O)NCC3(O)CCN(C)CC3)c3cccn3n2)n1 [Example 154, N-[(4-hydroxy-1-methylpiperidin-4-yl)methyl]-4-{[2-(6-methylpyridin-2-yl)pyrrolo[2,1-f][1,2,4]triazin-4-yl]amino}pyridine-3-carboxamide]	7.48
Fc1cnccc1Nc1nc(-c2cccc(OC(F)(F)F)n2)nn2cccc12 [Example 289, 3-fluoro-N-{2-[6-(trifluoromethoxy)pyridin-2-yl]pyrrolo[2,1-f][1,2,4]triazin-4-yl}pyridin-4-amine]	8.52
CCCNC(=O)c1cnccc1Nc1nc(-c2cccc(C(F)F)n2)nn2cccc12 [Example 184, 4-({2-[6-(difluoromethyl)pyridin-2-yl]pyrrolo[2,1-f][1,2,4]triazin-4-yl}amino)-N-propylpyridine-3-carboxamide]	7.85
COc1cccc(-c2nc(Nc3ccnc(F)c3)c3cccn3n2)n1 [Example 94, 2-fluoro-N-[2-(6-methoxypyridin-2-yl)pyrrolo[2,1-f][1,2,4]triazin-4-yl]pyridin-4-amine]	6.20
CC(=O)Nc1cc(Nc2nc(-c3cccc(C(F)F)n3)nn3cccc23)c(F)cn1 [Example 225, N-[4-({2-[6-(difluoromethyl)pyridin-2-yl]pyrrolo[2,1-f][1,2,4]triazin-4-yl}amino)-5-fluoropyridin-2-yl]acetamide]	8.29
O[C@H]1CC[C@H](NCc2ccn3nc(-c4ccccn4)nc(Nc4ccncc4F)c23)CC1 [Example 288, (1R,4R)-4-[({4-[(3-fluoropyridin-4-yl)amino]-2-(pyridin-2-yl)pyrrolo[2,1-f][1,2,4]triazin-5-yl}methyl)amino]cyclohexan-1-ol]	8.49
Cc1nnc(NCc2ccn3nc(-c4ccccn4)nc(Nc4ccncc4F)c23)s1 [Example 308, 3-fluoro-N-(5-{[(5-methyl-1,3,4-thiadiazol-2-yl)amino]methyl}-2-(pyridin-2-yl)pyrrolo[2,1-f][1,2,4]triazin-4-yl)pyridin-4-amine]	8.33
COc1cccc(-c2nc(Nc3ccnc(NCCN4CCOCC4)c3)c3cccn3n2)n1 [Example 139, 4-N-[2-(6-methoxypyridin-2-yl)pyrrolo[2,1-f][1,2,4]triazin-4-yl]-2-N-[2-(morpholin-4-yl)ethyl]pyridine-2,4-diamine]	6.72
Cc1cccc(-c2nc(Nc3ccncc3OCCCCN(C)C)c3cccn3n2)n1 [Example 51, 3-[4-(dimethylamino)butoxy]-N-[2-(6-methylpyridin-2-yl)pyrrolo[2,1-f][1,2,4]triazin-4-yl]pyridin-4-amine]	7.52
